Experimental data published in patent US20240002407A1, “THIENOPYRIMIDINONE DERIVATIVES” (Hoffmann-La Roche Inc., priority 2021, published 2024).

Each compound was assayed on mutant HTT protein (mHTT) (assay: Homogeneous Time Resolved Fluorescence (HTRF) assay for HTT lowering in GENEAe020-A cells). Conditions: reduction of mHTT; Huntington patient human cells (GENEAe020-A cell line); 48 hours incubation; mean from three replicates.
Assay type: cell-based
Description: The HTRF assay was adapted from Weiss et al. (Analytical Biochemistry Volume 395, Issue 1, 1 Dec. 2009, Pages 8-15 and Analytical Biochemistry Volume 410, 2011, Pages 304-306) to cells from GENEAe020-A cell line (https://hpscreg.eu/cell-line/GENEAe020-A).
Compounds were tested for the effect of mutant HTT levels in Huntington patient human cells (GENEAe020-A cell line) using Homogeneous Time Resolved Fluorescence (HTRF) directed towards mutant HTT protein (mHTT). The GENEAe020-A cell line was derived by Genea Biocells from human blastocysts of HD donors. After assessing viability, cells were plated into 384 well collagen coated plates in growth media. Once cells adhered, media was removed and test compounds dissolved in DMSO were diluted with buffer solution and added to the adherent cells. Controls included experiments with no cells, DMSO with no compound, and Hsp90 inhibitor control. Cells were incubated with compounds and controls for 48 hours. Then, the cells were lysed and transferred to an assay plate containing HTRF labeled monoclonal antibodies developed by Paul Patterson (Ko et al., Brain Research Bulletin, Volume 56, Numbers 3 and 4, 2001, Pages 319-329) which recognize specific areas of the HTT protein. The terbium labeled “donor” antibody (2B7) binds to the N-terminus of the HTT protein and the Alexa488 labeled “acceptor” antibody (MW1) is specific for the polyglutamine region of the protein. Binding of the acceptor labeled antibody is more efficient for the extended polyglutamine repeats of mutant HTT protein which translates into a signal boost which enables the specific measurement of mutant HTT protein level. The HTRF donor and acceptor detection reagents were incubated with the cell lysate and the ratio between the signals of the two fluorophores is indicative of the relative quantities of mHTT.
Work on `Cc1cn2nc(-c3nc4sc(OC5CCNCC5)cc4c(=O)[nH]3)cc(C)c2n1` [Example 5, 2-(2,8-Dimethylimidazo[1,2-b]pyridazin-6-yl)-6-(4-piperidyloxy)-3H-thieno[2,3-d]pyrimidin-4-one] yielded an EC50 of 0.282 µM.
Work on `Cc1cn2nc(-c3nc4sc(C5CCNCC5)cc4c(=O)[nH]3)cc(C)c2n1` [Example 1, 2-(2,8-Dimethylimidazo[1,2-b]pyridazin-6-yl)-6-(4-piperidyl)-3H-thieno[2,3-d]pyrimidin-4-one hydrogen chloride] yielded an EC50 of 0.05 µM.
`Cc1cn2nc(-c3nc4sc([C@H]5CCNC[C@H]5F)cc4c(=O)[nH]3)cc(C)c2n1` (racemic) [Example 2, 2-(2,8-Dimethylimidazo[1,2-b]pyridazin-6-yl)-6-[(3SR,4SR)-3-fluoro-4-piperidyl]-3H-thieno[2,3-d]pyrimidin-4-one] gave an EC50 of 0.205 µM.
Compound `Cc1cn2nc(-c3nc4sc(OC5CNC5)cc4c(=O)[nH]3)cc(C)c2n1` [Example 4, 6-(Azetidin-3-yloxy)-2-(2,8-dimethylimidazo[1,2-b]pyridazin-6-yl)-3H-thieno[2,3-d]pyrimidin-4-one] has an EC50 of 4.7 µM.
`Cc1cn2nc(-c3nc4sc(C5CCNCC5(F)F)cc4c(=O)[nH]3)cc(C)c2n1` (stereo not drawn) [Example 3, 6-(3,3-Difluoro-4-piperidyl)-2-(2,8-dimethylimidazo[1,2-b]pyridazin-6-yl)-3H-thieno[2,3-d]pyrimidin-4-one] showed an EC50 of 2.27 µM.
In the case of `Cc1cn2nc(-c3nc4sc(C5CCNC6(CC6)C5)cc4c(=O)[nH]3)cc(C)c2n1` (stereo not drawn) [Example 6, 6-(4-Azaspiro[2.5]octan-7-yl)-2-(2,8-dimethylimidazo[1,2-b]pyridazin-6-yl)-3H-thieno[2,3-d]pyrimidin-4-one], the EC50 is reported as 0.203 µM.
